Data from US7553969B1, “Substituted phenethylamine derivatives” (Chugai Seiyaku Kabushiki Kaisha, priority 1999, dated 2009).
Where a SMILES comes first, the peptide text is derived from it. [ ]: non-standard residue; d: D form. The star is where a group is joined. ξ: configuration not given here. NMeTyr(3-tBu) = CN[C@@H](Cc1ccc(O)c(C(C)(C)C)c1)C(=O)O; ξNMeTyr(3-tBu) = CNC(Cc1ccc(O)c(C(C)(C)C)c1)C(=O)O; NMePhe(4-F) = CN[C@@H](Cc1ccc(F)cc1)C(=O)O; Phe(4-F) = N[C@@H](Cc1ccc(F)cc1)C(=O)O; NMetBuAla = CN[C@@H](CC(C)(C)C)C(=O)O; ξPhe(4-CN) = N#Cc1ccc(CC(N)C(=O)O)cc1; NMe2Thi = CN[C@@H](Cc1cccs1)C(=O)O; NMeGly(cPr) = CN[C@H](C(=O)O)C1CC1; NMeIle(3ξ) = CCC(C)[C@H](NC)C(=O)O; NMeChg = CN[C@H](C(=O)O)C1CCCCC1; NMeF = CN[C@@H](Cc1ccccc1)C(=O)O; NMePhg = CN[C@H](C(=O)O)c1ccccc1; ξW = NC(Cc1c[nH]c2ccccc12)C(=O)O; NMeL = CN[C@@H](CC(C)C)C(=O)O; NMeNva = CCC[C@H](NC)C(=O)O; NMeV = CN[C@H](C(=O)O)C(C)C; Morpholide = C1CN(*)CCO1

Legend:
motilin receptor = target: T1, motilin receptor (Oryctolagus cuniculus, UniProt G1T803); assay: Motilin receptor binding test (125I motilin, rabbit duodenum protein sample); details: 125I motilin 25 pM, concentration reducing specific binding by 50%
T1 construct: homogenized in 50 mM Tris buffer to prepare a protein sample; from tissue; host or cells: rabbit duodenum homogenate (mucous membrane separated)
T1 sequence (G1T803 1-400): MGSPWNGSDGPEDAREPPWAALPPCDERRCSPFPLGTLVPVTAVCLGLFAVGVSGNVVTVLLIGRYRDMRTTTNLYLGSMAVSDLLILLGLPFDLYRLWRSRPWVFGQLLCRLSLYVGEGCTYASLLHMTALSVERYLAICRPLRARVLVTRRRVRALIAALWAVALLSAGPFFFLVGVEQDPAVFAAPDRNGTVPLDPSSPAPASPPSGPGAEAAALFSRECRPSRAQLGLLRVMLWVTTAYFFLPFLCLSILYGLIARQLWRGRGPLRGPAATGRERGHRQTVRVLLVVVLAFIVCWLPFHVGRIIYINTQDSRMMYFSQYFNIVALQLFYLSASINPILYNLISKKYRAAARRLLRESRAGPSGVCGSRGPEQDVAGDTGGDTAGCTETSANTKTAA
Method: Motilin receptor binding test
A motilin receptor binding test was conducted in the following manner [Vantrappen et al., Regul. Peptides, 15, 143 (1986)]. The duodenum was extracted from a slaughtered rabbit, had the mucous membrane separated and homogenized in 50 mM Tris buffer to prepare a protein sample. The protein sample was incubated together with ^125I motilin 25 pM and thereafter the radioactivity bound to the protein was measured. Specific binding was defined as the difference between the radioactivity in the case of adding a great excess amount of motilin (10^−7 M) and that in the case of no adding. The activity of the compound was expressed by IC50 (in nM), as the concentration sufficient to reduce the specific binding by 50%.

[1] = system: specimen of longitudinal muscle in the duodenum extracted from a rabbit (motilin-induced contraction); assay: Action on the motilin-induced contraction of a specimen of longitudinal muscle in the duodenum extracted from a rabbit; details: Oryctolagus cuniculus, organ bath, Krebs solution 28° C., read-out: Contraction suppressing test, pA2 (converted)
Method: Action on the Contraction of a Specimen of Longitudinal Muscle in the Duodenum Extracted from a Rabbit
The action on the motilin-induced contraction of a specimen of longitudinal muscle in the duodenum extracted from a rabbit was investigated by the following method. A duodenum specimen (5×15 mm) extracted from a slaughtered rabbit was suspended in an organ bath (10 ml) such that the longitudinal muscle would run vertically; the bath was filled with a Krebs solution kept at 28° C. A mixed gas (95% O2 and 5% CO2) was continuously bubbled into the Krebs solution and the contraction of the duodenum specimen was recorded isotonically (with a 1-g load) via an isotonic transducer (ME-3407, ME Commercial, Tokyo, Japan). The degree of contraction was expressed in relative values, with the contraction by acetylcholine at a dose of 10^−4 M being taken as 100%. The activity of the compound was calculated as pA2 value indicating its effect on the dose-dependent muscle contraction by the motilin put into the organ bath.

| SMILES | IC50 (motilin receptor) | Kb [1] |
| --- | --- | --- |
| CCN[C@@H](Cc1ccc(F)cc1)C(=O)N(C)[C@H](C(=O)N(CC)[C@@H](Cc1ccc(O)c(C(C)(C)C)c1)C(=O)NCO)C(C)C [Example 129, N-Et-Phe(4-F)-N-Me-Val-N-Et-Tyr(3-tBu)-NHCH2OH] | 4 nM | 3.16 nM |
| CC(C)[C@@H](C(=O)N(C)[C@@H](Cc1ccc(O)c(C(C)(C)C)c1)C(=O)N1CCN(S(C)(=O)=O)CC1)N(C)C(=O)[C@@H](N)Cc1ccc(F)cc1 [Example 134, (2S)-2-[(2S)-2-amino-3-(4-fluorophenyl)-N-methylpropanolyamino]-N-((1S)-1-{[3-(tert-butyl)-4-hydroxyphenyl]methyl}-2-[4-(methylsulfonyl)piperazinyl]-2-oxoethyl)-3-methyl-N-methylbutanamide] | 1.5 nM | 5.01 nM |
| CC(C)[C@@H](C(=O)N(C)[C@@H](Cc1ccc(O)c(C(C)(C)C)c1)C(=O)N1CCN(CC(=O)O)CC1)N(C)C(=O)[C@@H](N)Cc1ccc(F)cc1 [Example 136, 2-[4-((2S)-2-{(2S)-2-[(2S)-2-amino-3-(4-fluorophenyl)-N-methylpropanolyamino)-3,N-dimethylbutanoylamino}-3-[3-(tert-butyl)-4-hydroxyphenyl]propanoyl)piperazinyl]acetic acid] | 6.8 nM | 25.1 nM |
| CCC[C@@H](C(=O)N(C)[C@@H](Cc1ccc(O)c(C(C)(C)C)c1)C(N)=O)N(C)C(=O)[C@@H](N)Cc1ccc(F)cc1 [Example 140, Phe(4-F)-N-Me-Nva-N-Me-Tyr(3-tBu)-NH2] (H-[Phe(4-F)]-[NMeNva]-[NMeTyr(3-tBu)]-NH2) | 4 nM | 6.31 nM |
| CC(C)C[C@@H](C(=O)N(C)[C@@H](Cc1ccc(O)c(C(C)(C)C)c1)C(N)=O)N(C)C(=O)[C@@H](N)Cc1ccc(F)cc1 [Example 144, Phe(4-F)-N-Me-Leu-N-Me-Tyr(3-tBu)-NH2] (H-[Phe(4-F)]-[NMeL]-[NMeTyr(3-tBu)]-NH2) | 2 nM | 3.16 nM |
| CN(C(=O)[C@@H](N)Cc1ccc(F)cc1)[C@H](C(=O)N(C)[C@@H](Cc1ccc(O)c(C(C)(C)C)c1)C(N)=O)C1CCCCC1 [Example 151, Phe(4-F)-N-Me-Chg-N-Me-Tyr(3-tBu)-NH2] (H-[Phe(4-F)]-[NMeChg]-[NMeTyr(3-tBu)]-NH2) | 0.36 nM | 6.31 nM |
| CN(C(=O)[C@@H](N)Cc1ccc(F)cc1)[C@H](C(=O)N(C)[C@@H](Cc1ccc(O)c(C(C)(C)C)c1)C(N)=O)C1CC1 [Example 165, Phe(4-F)-N-Me-Ala(β-c-Pr)-N-Me-Tyr(3-tBu)-NH2] (H-[Phe(4-F)]-[NMeGly(cPr)]-[NMeTyr(3-tBu)]-NH2) | 2.8 nM | 6.31 nM |
| CC(C)[C@@H](C(=O)N(C)C(Cc1ccc(O)c(C(C)(C)C)c1)C(N)=O)N(C)C(=O)C(N)Cc1c[nH]c2ccccc12 (stereo partly drawn) [Example 183, Trp-N-Me-Val-N-Me-Tyr(3-tBu)-NH2] (H-[ξW]-[NMeV]-[ξNMeTyr(3-tBu)]-NH2) | 0.57 nM | 0.316 nM |

Second part, led by results:

| IC50 (motilin receptor) | SMILES | Kb [1] |
| --- | --- | --- |
| 0.86 nM | CC(C)[C@@H](C(=O)N(C)[C@@H](Cc1ccc(O)c(C(C)(C)C)c1)C(=O)NCO)N(C)C(=O)[C@@H](N)Cc1ccc(F)cc1 [Example 132, Phe(4-F)-N-Me-Val-N-Me-Tyr(3-tBu)-NHCH2OH] | 1.26 nM |
| 1.1 nM | CC(C)[C@@H](C(=O)N(C)[C@@H](Cc1ccc(O)c(C(C)(C)C)c1)C(=O)N1CCOCC1)N(C)C(=O)[C@@H](N)Cc1ccc(F)cc1 [Example 133, (2S)-2-[(2S)-2-amino-3-(4-fluorophenyl)-N-methylpropanolyamino]-N-((1S)-1-{[3-(tert-butyl)-4-hydroxyphenyl]methyl}-2-morpholin-4-yl-2-oxoethyl)-3-methyl-N-methylbutanamide] (H-[Phe(4-F)]-[NMeV]-[NMeTyr(3-tBu)]-Morpholide) | 6.31 nM |
| 0.7 nM | CCOC(=O)CN1CCN(C(=O)[C@H](Cc2ccc(O)c(C(C)(C)C)c2)N(C)C(=O)[C@H](C(C)C)N(C)C(=O)[C@@H](N)Cc2ccc(F)cc2)CC1 [Example 135, ethyl 2-[4-((2S)-2-{(2S)-2-[(2S)-2-amino-3-(4-fluorophenyl)-N-methylpropanolyamino]-3,N-dimethylbutanoylamino}-3-[3-(tert-butyl)-4-hydroxyphenyl]propanoyl)piperazinyl]acetate] | 3.16 nM |
| 0.62 nM | CCC(C)[C@@H](C(=O)N(C)[C@@H](Cc1ccc(O)c(C(C)(C)C)c1)C(N)=O)N(C)C(=O)[C@@H](N)Cc1ccc(F)cc1 (stereo partly drawn) [Example 142, Phe(4-F)-N-Me-Ile-N-Me-Tyr(3-tBu)-NH2] (H-[Phe(4-F)]-[NMeIle(3ξ)]-[NMeTyr(3-tBu)]-NH2) | 2.51 nM |
| 4.1 nM | CN(C(=O)[C@@H](N)Cc1ccc(F)cc1)[C@@H](CC(C)(C)C)C(=O)N(C)[C@@H](Cc1ccc(O)c(C(C)(C)C)c1)C(N)=O [Example 148, Phe(4-F)-N-Me-Leu(γ-Me)-N-Me-Tyr(3-tBu)-NH2] (H-[Phe(4-F)]-[NMetBuAla]-[NMeTyr(3-tBu)]-NH2) | 3.98 nM |
| 2.5 nM | CN(C(=O)[C@@H](N)Cc1ccc(F)cc1)[C@@H](Cc1ccccc1)C(=O)N(C)[C@@H](Cc1ccc(O)c(C(C)(C)C)c1)C(N)=O [Example 155, Phe(4-F)-N-Me-Phe-N-Me-Tyr(3-tBu)-NH2] (H-[Phe(4-F)]-[NMeF]-[NMeTyr(3-tBu)]-NH2) | 7.94 nM |
| 6.1 nM | CN(C(=O)[C@@H](N)Cc1ccc(F)cc1)[C@@H](Cc1ccc(F)cc1)C(=O)N(C)[C@@H](Cc1ccc(O)c(C(C)(C)C)c1)C(N)=O [Example 157, Phe(4-F)-N-Me-Phe(4-F)-N-Me-Tyr(3-tBu)-NH2] (H-[Phe(4-F)]-[NMePhe(4-F)]-[NMeTyr(3-tBu)]-NH2) | 7.94 nM |
| 2.4 nM | CN(C(=O)[C@@H](N)Cc1ccc(F)cc1)[C@@H](Cc1cccs1)C(=O)N(C)[C@@H](Cc1ccc(O)c(C(C)(C)C)c1)C(N)=O [Example 163, Phe(4-F)-N-Me-Ala(β-2-thienyl)-N-Me-Tyr(3-tBu)-NH2] (H-[Phe(4-F)]-[NMe2Thi]-[NMeTyr(3-tBu)]-NH2) | 15.8 nM |
| 1.8 nM | CN(C(=O)[C@@H](N)Cc1ccc(F)cc1)[C@H](C(=O)N(C)[C@@H](Cc1ccc(O)c(C(C)(C)C)c1)C(N)=O)c1ccccc1 [Example 166, Phe(4-F)-N-Me-Phg-N-Me-Tyr(3-tBu)-NH2] (H-[Phe(4-F)]-[NMePhg]-[NMeTyr(3-tBu)]-NH2) | 0.158 nM |
| 2.3 nM | CC(C)[C@@H](C(=O)N(C)C(Cc1ccc(O)c(C(C)(C)C)c1)C(N)=O)N(C)C(=O)C(N)Cc1ccc(C#N)cc1 (stereo partly drawn) [Example 182, Phe(4-CN)-N-Me-Val-N-Me-Tyr(3-tBu)-NH2] (H-[ξPhe(4-CN)]-[NMeV]-[ξNMeTyr(3-tBu)]-NH2) | 3.16 nM |
